Results: ChEMBL document CHEMBL4828733, “Discovery and In Vivo Anti-inflammatory Activity Evaluation of a Novel Non-peptidyl Non-covalent Cathepsin C Inhibitor” (J Med Chem, 2021)

Assays:
[1] = Octanol/water partition coefficient, logP of compound at pH 7.4; type: physicochemical
[2] = MRT in Sprague-Dawley rat at 1 mg/kg, ip measured up to 24 hrs by LC-MS/MS analysis; type: ADME, organism-based; details: in vivo
[3] = Cmax in Sprague-Dawley rat at 1 mg/kg, ip measured up to 24 hrs by LC-MS/MS analysis; type: ADME, organism-based; set-up: route intraperitoneal, dose 1 mg/kg, time <=24; details: in vivo
[4] = AUC (0 to infinitive) in Sprague-Dawley rat at 1 mg/kg, ip measured up to 24 hrs by LC-MS/MS analysis; type: ADME, organism-based; set-up: route intraperitoneal, dose 1 mg/kg, time <=24; details: in vivo
[5] = Tmax in Sprague-Dawley rat at 10 mg/kg, po measured up to 24 hrs by LC-MS/MS analysis; type: ADME, organism-based; details: in vivo
[6] = MRT in Sprague-Dawley rat at 10 mg/kg, po measured up to 24 hrs by LC-MS/MS analysis; type: ADME, organism-based; details: in vivo
[7] = Cmax in Sprague-Dawley rat at 10 mg/kg, po measured up to 24 hrs by LC-MS/MS analysis; type: ADME, organism-based; set-up: route oral, dose 10 mg/kg, time <=24; details: in vivo
[8] = AUC (0 to infinitive) in Sprague-Dawley rat at 10 mg/kg, po measured up to 24 hrs by LC-MS/MS analysis; type: ADME, organism-based; set-up: route oral, dose 10 mg/kg, time <=24; details: in vivo
[9] = Oral bioavailability in Sprague-Dawley rat at 10 mg/kg measured up to 24 hrs by LC-MS/MS analysis; type: ADME, organism-based; details: in vivo
[10] = Acute toxicity in ICR mouse assessed as mortality rate at 1500 mg/kg, po administered as single dose measured after 1 week relative to control; type: organism-based; details: in vivo, time 1 weeks, read-out: Activity

logD [1]	Compound	other results
2.03	FC(F)(F)c1cccc(Nc2nc(Nc3ccc(-c4ccsc4)cn3)ncc2Cl)c1	–
2.65	FC(F)(F)Oc1cccc(Nc2nc(Nc3ccccc3)ncc2Cl)c1	–
1.26	CN1CCN(c2ccc(Nc3ncc(Cl)c(Nc4cccc(C(F)(F)F)c4)n3)nn2)CC1	–
2.18	CCN1CCN(c2ccc(Nc3ncc(Cl)c(Nc4cccc(C(F)(F)F)c4)n3)nc2)CC1	–
1.87	CN1CCN(c2ccc(Nc3ncc(Cl)c(Nc4cccc(C(F)(F)F)c4)n3)nc2)CC1	MRT [2]: 1.22 h; Cmax [3]: 458 ng/mL; AUC [4]: 249.2 ng·h/mL; Tmax [5]: 2 h; MRT [6]: 2.68 h; Cmax [7]: 83.5 ng/mL; AUC(0-inf) [8]: 158 ng·h/mL; bioavailability [9]: 16.7%
1.89	CN1CCN(c2ncc(Nc3ncc(Cl)c(Nc4cccc(C(F)(F)F)c4)n3)cn2)CC1	–
1.46	CN1CCN(c2ccc(Nc3ncc(Cl)c(Nc4cccc(C(F)(F)F)c4)n3)cc2)CC1	–
2.46	FC(F)(F)c1cccc(Nc2nc(Nc3ccccc3)ncc2Cl)c1	–
1.4	FC(F)(F)c1cccc(Nc2nc(Nc3ccccn3)ncc2Cl)c1	–
1.25	FC(F)(F)c1cccc(Nc2nc(Nc3ccc(N4CCNCC4)cn3)ncc2Cl)c1	–
0.44	NC1CCN(c2ccc(Nc3ncc(Cl)c(Nc4cccc(C(F)(F)F)c4)n3)nc2)CC1	–
1.61	CN1CCN(c2ccc(Nc3ncc(Cl)c(Nc4cccc(C(F)(F)F)c4)n3)cn2)CC1	–
2.26	FC(F)(F)c1cccc(Nc2nc(Nc3cccnn3)ncc2Cl)c1	–
2.01	FC(F)(F)c1cccc(Nc2nc(Nc3cncnc3)ncc2Cl)c1	–
1.26	FC(F)(F)c1cccc(Nc2nc(Nc3cccnc3)ncc2Cl)c1	–

Compound	logD [1]	other results
CN(C)C1CCN(c2ccc(Nc3ncc(Cl)c(Nc4cccc(C(F)(F)F)c4)n3)nc2)CC1	2.01	mortality at 168 h [10]: 70%
